We go through one substance from article PMC11649784, “Re-design and evaluation of diclofenac-based carborane-substituted prodrugs and their anti-cancer potential” (Scientific Reports, 2024).

One data set addresses T1, ovine COX-1 (Ovis aries, UniProt P05979).
T1 construct: purchased Cayman Chemical Company, Ann Arbor, MI, USA
T1 sequence (P05979 25-600): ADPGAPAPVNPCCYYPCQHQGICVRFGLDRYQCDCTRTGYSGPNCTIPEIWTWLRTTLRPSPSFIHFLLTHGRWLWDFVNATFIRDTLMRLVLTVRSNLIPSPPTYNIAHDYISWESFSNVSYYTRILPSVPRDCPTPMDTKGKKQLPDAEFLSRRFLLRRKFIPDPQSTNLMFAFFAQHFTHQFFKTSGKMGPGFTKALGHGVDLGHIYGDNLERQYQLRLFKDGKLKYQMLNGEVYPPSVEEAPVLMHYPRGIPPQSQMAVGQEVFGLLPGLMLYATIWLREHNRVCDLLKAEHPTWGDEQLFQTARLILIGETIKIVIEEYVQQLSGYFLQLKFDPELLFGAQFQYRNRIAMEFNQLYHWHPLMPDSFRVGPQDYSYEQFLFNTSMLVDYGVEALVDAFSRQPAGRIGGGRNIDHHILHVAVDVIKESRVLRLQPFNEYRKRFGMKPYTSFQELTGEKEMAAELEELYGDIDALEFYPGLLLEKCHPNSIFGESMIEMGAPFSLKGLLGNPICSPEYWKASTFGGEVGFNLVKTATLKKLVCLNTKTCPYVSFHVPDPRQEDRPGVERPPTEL
Description: COX Fluorescent Inhibitor Screening Assay, COX-1. The class given is biochemical. Conditions: absolute IC50, 0.1 to 100 μM in duplicate, 95% CI in brackets. The procedure:
The COX inhibition activity against ovine COX-1 and human recombinant COX-2 was determined using the COX Fluorescent Inhibitor Screening Assay Kit (Cayman Chemical Company, Ann Arbor, MI, USA) according to the manufacturer’s instructions as reported.

The test system of another data set is HCT116 cells. Description: MTT viability assay, HCT116. It is filed as cell-based, human. Conditions: 72 h, mean±SD; read-out: IC50 [μM] (n = 3) HCT116 MTT. On the procedure: In a preliminary test, the stability of all compounds dissolved in the cell medium (c = 100 μM, T = [drawing 47] ) for 72 h was validated by HPLC (see Supporting Information). Cell lines were incubated with the respective compounds in a concentration range of 1.56–100 μM for 72 h, and cell viability was measured using 3-(4,5-dimethylthiazol-2-yl)-2,5-diphenyltetrazolium bromide (MTT) and crystal violet (CV) assays. […] As MTT tests gave inconsistent results, possibly due to interference of the compound with mitochondrial respiration, for the further evaluation only the CV results are considered[97],[98].
The biological study was performed on a murine colon adenocarcinoma cell line (MC38), two human colorectal carcinoma cell lines (HCT116 and HT29), and a human fetal lung fibroblast cell line (MRC-5). All cell lines are commercially available and were obtained from the American Type Culture Collection (ATCC). The human cell lines were kept in HEPES-buffered RPMI-1640 medium supplemented with 10 [drawing 141] heat-inactivated FCS, 2 mM L-glutamine, 0.01 [drawing 142] sodium pyruvate, penicillin (100 units mL^−1), and, streptomycin ( [drawing 143] mL^-1). The MC38 cell line was maintained in DMEM medium additionally supplemented with 1 [drawing 144] non-essential amino acids. Cells were grown at [drawing 145] in a humidified atmosphere with 5 [drawing 146] [drawing 147] . Peritoneal exudate cells (PECs) were isolated from healthy C57BL/6 mice (males, n = 3, 3 months old, weight 22–25 g) by performing an ice-cold PBS peritoneal lavage. Mice were sacrificed by cervical dislocation. Cells were cultivated for 4 h when nonadherent population was removed by washing in PBS, and additionally cultivated overnight in HEPES-buffered RPMI-1640 medium supplemented with 5 [drawing 148] heat-inactivated FCS before treatment with experimental drugs. Animal handling and protocol for isolation of PECs were performed according to European Union rules, and the ARRIVE guidelines 2.0.
For the viability tests, MC38, HCT116, and HT29 cells were seeded in 96-well plates at a density of 2 [drawing 149] 103, 5 [drawing 150] 103, and 6 [drawing 151] 10^3 cells/well, respectively. To determine whether the drug affected the viability of healthy, non-malignant cells, MRC-5 and PECs were seeded in 96-well plates at a density of 8 [drawing 152] 103 and 2 [drawing 153] 10^5 cells/well, respectively. For the flow cytometric analyses, MC38 cells were seeded in 6-well plates at 5 [drawing 154] 10^4 cells/well. For morphological assessment of nuclei and the detection of autophagy, MC38 cells were seeded in 2-well chamber slides at 1.5 [drawing 155] 10^4 cells/well.
After 72 h, cell viability was determined using MTT and CV tests. First, the supernatant from the wells was discarded and the cells were incubated with an MTT solution (0.5 mg mL^−1). After half an hour, the purple formazan crystals formed were dissolved in DMSO. For CV staining of the cells, the cells were fixed with 4 [drawing 157] PFA for 10 min and then stained with a 0.02 [drawing 158] CV solution for 15 min, all at room temperature (RT). The cells were then washed with tap water, air-dried and the dye was dissolved in 33 [drawing 159] acetic acid. For both viability tests, the absorbance of the developed colors was measured using an automated microplate reader at 570 nm with a reference wavelength of 670 nm. The results were expressed as a percentage of the control values of the untreated cells, which were arbitrarily set at 100 [drawing 160] . IC50 values, defined as 50 [drawing 161] inhibitory concentration, were calculated using a four-parameter logistic function and presented as mean±SD. All biological experiments were performed in triplicates. To evaluate the nature of the detected autophagy, a combined treatment with compound 3 and the autophagy inhibitors chloroquine (Chlq) and 3-methyladenine (3-MA) was carried out. […] After 72 h, cell viability was determined by CV assay.

Another data set relates to MC38 cells. Description: Acridine orange staining for autophagosomes. As to conditions: IC50 concentration, 72 h. It is filed as cell-based, murine. The procedure:
For morphological assessment of cell nuclei, MC38 cells were seeded overnight in 2-well chamber slides and then treated with the IC50 concentration of compound 3 for 72 h. At the end of the incubation period, cells were fixed with 4 [drawing 168] PFA for 15 min at RT. Staining of cells was performed with PI solution (0.1 [drawing 169] Triton X-100, 0.5 M EDTA pH 8, 50 μg mL^− 1 RNase, and 50 [drawing 170] mL^− 1 PI - final concentrations in PBS) for 1–2 min at RT. After washing in PBS, the cells were mounted in a fluorescence microscopy medium (Fluoromount- [drawing 171] , eBioscience, San Diego, CA, USA). The slides were analyzed with a ZeissAxio Observer Z1 inverted fluorescence microscope (Carl Zeiss AG, Oberkochen, Germany) at 400 [drawing 172] magnification. For the detection of autophagosomes, AO staining of cells seeded in 2-well chamber slides was applied. […] The dye was then removed, the cells were rinsed with PBS and immediately evaluated via fluorescence microscopy at 400 [drawing 175] magnification using the Leica DM4 B microscope equipped with a DFC7000 T camera (Leica Microsystems CMS GmbH, Wetzlar, Germany).

The nature of data set [1]: Stability in solution, air and moisture. Conditions: storage.

As for “1-[2-(7,8-dicarba-nido-undecaborate)]- [drawing 126] H-indolium-2-amine [compound 3]”, the 50% inhibitory concentration (IC50) on ovine COX-1 was determined as 15.3 µM; in the data set with HCT116 cells, 6.9 ± 1.5 µM. Further, the “autophagosomes in the cytoplasm (acridine orange)” value with MC38 cells is listed as “intensified presence of autophagosomes”. In addition, the “stability in air and moisture” value in data set [1] was “stable in air and moisture”.
